This note sets out measurements from US12473291B2 (priority 2019, dated 2025).

Like-named read-outs stand apart in the source and are kept apart here.

One test has as its system SD rats. Kind of test: animal or person. The class given is in vivo. The conditions noted are these: for ED50: SD rats (male, 220-300 g), injection via the tail vein, disappearance of righting reflex; for 2ED50 duration / 2ED50 recovery time / Quality of recovery: SD rats; for 2ED50 duration / 2ED50 recovery time: single tail vein injection at 2×ED50; for 2ED50 duration: time from disappearance to recovery of righting reflex; for 2ED50 recovery time: time from recovery of righting reflex to free crawling; for Quality of recovery: tail vein injection; for duration and recovery time compared with remimazolam / effective dose compared with remimazolam: rats, tail vein, in words.

The subject of another test is KM mice. Description: animal or person. Type of test: in vivo. The conditions noted are these: for 2ED50 duration / 2ED50 recovery time / Quality of recovery: KM mice; for 2ED50 duration / 2ED50 recovery time: single tail vein injection at 2×ED50; for 2ED50 duration: time from disappearance to recovery of righting reflex; for 2ED50 recovery time: time from recovery of righting reflex to free crawling; for Quality of recovery: tail vein injection; for ED50: KM mice (male, 18-22 g), injection via the tail vein, disappearance of righting reflex; for duration and recovery time compared with remimazolam / effective dose compared with remimazolam: mice, tail vein, in words.

[1] abbreviates: Rattus norvegicus, read-out: ED50.

In general, ED50 refers to the dose that gives a 50% effect, or the effect in half of the subjects. For `CCOC(=O)COC(=O)CC[C@@H]1N=C(c2ccccn2)c2cc(Br)c(Br)cc2-n2c(C)cnc21` [Example 21], in the test with SD rats (setting [1]), the ED50 worked out at 4.2 mg/kg. In the test on SD rats, the “2ED50 duration” value is 3.08 min, the 2ED50 recovery time came to 2.27 min and the Quality of recovery entry was “++ (“++” means 1-3 min)”. Further, in the test with KM mice, the 2ED50 duration is 3.08 min, the 2ED50 recovery time came to 2.01 min and the Quality of recovery entry was “++ (“++” means 1-3 min)”. Besides, in the test with KM mice (Mus musculus, read-out: ED50), the ED50 came out at 25.9 mg/kg.
`COC(=O)C(C)OC(=O)CC[C@@H]1N=C(c2ccccn2)c2cc(Br)c(Br)cc2-n2c(C)cnc21` (stereo partly drawn) [Example 22]: the ED50 with SD rats (setting [1]) was 4.3 mg/kg. Also, in the test on SD rats, the “2ED50 duration” value worked out at 3.28 min, the 2ED50 recovery time was determined as 2.46 min and the Quality of recovery result is reported as “++ (“++” means 1-3 min)”. In the test on KM mice, the 2ED50 duration was determined as 5.58 min, the 2ED50 recovery time was 2.18 min and the Quality of recovery result is recorded as “++ (“++” means 1-3 min)”. The ED50 in the test with KM mice (Mus musculus, read-out: ED50) was 30.7 mg/kg.
Regarding `COC(=O)C(C)(C)OC(=O)CC[C@@H]1N=C(c2ccccn2)c2cc(Br)c(Cl)cc2-n2c(C)cnc21` [Example 24], the ED50 with SD rats (setting [1]) came out at 6.8 mg/kg. In the test with SD rats, the “2ED50 duration” value worked out at 0.50 min; the 2ED50 recovery time is on record as 0.47 min; the Quality of recovery entry is recorded as “+ (“+” means <1 min)”; the “duration and recovery time compared with remimazolam” value is listed as “significantly shorter”. In addition, in the test with SD rats, the “effective dose compared with remimazolam” value is on record as “significantly lower”. Further, in the test with KM mice, the 2ED50 duration is reported as 1.50 min; the 2ED50 recovery time is reported as 1.02 min; the “duration and recovery time compared with remimazolam” value is on record as “significantly shorter”; the “effective dose compared with remimazolam” value was “significantly lower”. Moreover, in the test with KM mice (Mus musculus, read-out: ED50), the 50% effective dose (ED50) was 12 mg/kg.
Consider `COC(=O)C1(OC(=O)CC[C@@H]2N=C(c3ccccn3)c3cc(Cl)c(C(F)(F)F)cc3-n3c(C)cnc32)CC1` [Example 25], for which the 50% effective dose (ED50) in the test on SD rats (setting [1]) was 4.2 mg/kg. In the test with SD rats, the “2ED50 duration” value stood at 3.53 min, the 2ED50 recovery time is reported as 2.21 min and the Quality of recovery result is given as “++ (“++” means 1-3 min)”. In addition, in the test on KM mice, the 2ED50 duration is given as 5.32 min, the 2ED50 recovery time was found to be 2.19 min and the Quality of recovery result was “++ (“++” means 1-3 min)”. For the same compound, the ED50 with KM mice (Mus musculus, read-out: ED50) stood at 34 mg/kg.
Regarding `CCOC(=O)C1(OC(=O)CC[C@@H]2N=C(c3ccccn3)c3cc(F)c(C)cc3-n3c(C)cnc32)CC1` [Example 26], the median effective dose (ED50) with SD rats (setting [1]) was found to be 3.7 mg/kg; with KM mice (Mus musculus, read-out: ED50), 23.7 mg/kg. Further, the “2ED50 duration” value in the test on SD rats came to 3.48 min; in the test on KM mice, 4.38 min. Moreover, the values for the 2ED50 recovery time in the test with SD rats and with KM mice were 2.04 min and 2.08 min, respectively. The Quality of recovery result in the test on SD rats is “++ (“++” means 1-3 min)”; in the test on KM mice it was “+++ (“+++” means 3-5 min)”.
`COC(=O)COC(=O)CC[C@@H]1N=C(c2ccccn2)c2cc(F)c(OC)cc2-n2c(C)cnc21` [Example 27]: in the test on SD rats (setting [1]), the ED50 was 6.3 mg/kg. Besides, in the test with SD rats, the “2ED50 duration” value is 1.16 min; the 2ED50 recovery time turned out to be 1.05 min; the Quality of recovery result is listed as “+ (“+” means <1 min)”; the “duration and recovery time compared with remimazolam” value is “significantly shorter”. Moreover, the “effective dose compared with remimazolam” value in the test with SD rats is recorded as “significantly lower”. Also, in the test with KM mice, the 2ED50 duration was 1.46 min; the 2ED50 recovery time is 1.20 min; the “duration and recovery time compared with remimazolam” value is recorded as “significantly shorter”; the “effective dose compared with remimazolam” value is “significantly lower”. In the test with KM mice (Mus musculus, read-out: ED50), the ED50 came out at 15.3 mg/kg.
`CCOC(=O)COC(=O)CC[C@@H]1N=C(c2ccccn2)c2cc(Cl)c(OC(F)(F)F)cc2-n2c(C)cnc21` [Example 28]: the ED50 in the test on SD rats (setting [1]) stood at 4.5 mg/kg. In the test on SD rats, the “2ED50 duration” value was found to be 0.58 min; the 2ED50 recovery time came to 0.33 min; the Quality of recovery result is listed as “+ (“+” means <1 min)”; the “duration and recovery time compared with remimazolam” value is given as “significantly shorter”. In addition, the “effective dose compared with remimazolam” value in the test with SD rats is reported as “significantly lower”. For the same compound, in the test with KM mice, the 2ED50 duration is on record as 0.52 min; the 2ED50 recovery time turned out to be 0.58 min; the “duration and recovery time compared with remimazolam” value is given as “significantly shorter”; the “effective dose compared with remimazolam” value was “significantly lower”. In the test with KM mice (Mus musculus, read-out: ED50), the ED50 was found to be 9.5 mg/kg.
In the case of `COC(=O)C(C)OC(=O)CC[C@@H]1N=C(c2ccccn2)c2c(cc(Cl)c(Cl)c2Cl)-n2c(C)cnc21` (stereo partly drawn) [Example 29], the ED50 in the test with SD rats (setting [1]) came out at 5.8 mg/kg. Also, in the test with SD rats, the “2ED50 duration” value stood at 3.59 min, the 2ED50 recovery time is recorded as 2.44 min and the Quality of recovery entry is recorded as “+++ (“+++” means 3-5 min)”. Further, in the test with KM mice, the 2ED50 duration was 4.59 min, the 2ED50 recovery time was 2.48 min and the Quality of recovery entry was “+++ (“+++” means 3-5 min)”. Besides, the ED50 in the test on KM mice (Mus musculus, read-out: ED50) came to 30.8 mg/kg.
For `COC(=O)C(C)(C)OC(=O)CC[C@@H]1N=C(c2ccccn2)c2cc(Cl)c(Cl)c(Cl)c2-n2c(C)cnc21` [Example 30], in the test on SD rats, the ED50 is recorded as 6.2 mg/kg, the “2ED50 duration” value was 3.01 min, the 2ED50 recovery time was found to be 2.51 min and the Quality of recovery result is reported as “++ (“++” means 1-3 min)”. For the same compound, in the test with KM mice, the 50% effective dose (ED50) was 30.2 mg/kg, the 2ED50 duration worked out at 4.04 min, the 2ED50 recovery time turned out to be 1.59 min and the Quality of recovery entry is recorded as “++ (“++” means 1-3 min)”.
Turning to `Cc1cnc2n1-c1c(Cl)c(Cl)c(Cl)c(Cl)c1C(c1ccccn1)=N[C@H]2CCC(=O)OCOC(=O)OC(C(C)C)C(C)C` [Example 31], the ED50 in the test with SD rats (setting [1]) turned out to be 2.3 mg/kg. Besides, in the test with SD rats, the “2ED50 duration” value was found to be 1.23 min; the 2ED50 recovery time is 1.14 min; the Quality of recovery result was “+ (“+” means <1 min)”; the “duration and recovery time compared with remimazolam” value is on record as “significantly shorter”. In addition, in the test with SD rats, the “effective dose compared with remimazolam” value is reported as “significantly lower”. In addition, in the test on KM mice, the 2ED50 duration was found to be 2.13 min; the 2ED50 recovery time was 1.04 min; the Quality of recovery result is given as “++ (“++” means 1-3 min)”; the “duration and recovery time compared with remimazolam” value is listed as “significantly shorter”. Besides, in the test on KM mice, the “effective dose compared with remimazolam” value is “significantly lower”. In the test with KM mice (Mus musculus, read-out: ED50), the ED50 is 17.3 mg/kg.
Take `Cc1cnc2n1-c1cc(C(F)(F)F)c(Cl)cc1C(c1cccnc1)=N[C@H]2CCC(=O)OCOC(=O)OC(C)C` [Example 32]: in the test on SD rats (setting [1]), the ED50 was 3.1 mg/kg. Moreover, in the test with SD rats, the “2ED50 duration” value is 3.34 min, the 2ED50 recovery time is given as 2.41 min and the Quality of recovery entry is recorded as “+++ (“+++” means 3-5 min)”. Also, in the test with KM mice, the 2ED50 duration was 4.34 min, the 2ED50 recovery time came to 2.01 min and the Quality of recovery entry is reported as “++++ (“++++” means 5-10 min)”. For the same compound, in the test on KM mice (Mus musculus, read-out: ED50), the ED50 came to 31.1 mg/kg.
`Cc1cnc2n1-c1cc(Br)c(Cl)cc1C(c1ccncc1)=N[C@H]2CCC(=O)OCOC(=O)OC(C)(C)C` [Example 33]: the ED50 was determined as 6.2 mg/kg in the test with SD rats (setting [1]) and 21.2 mg/kg in the test on KM mice (Mus musculus, read-out: ED50). Besides, the “2ED50 duration” value in the test on SD rats came out at 3.51 min; in the test with KM mice it was 3.21 min. Further, the results for the 2ED50 recovery time with SD rats and in the test on KM mice were 2.38 min and 1.48 min, respectively. Besides, the Quality of recovery entry in the test on SD rats is “+++ (“+++” means 3-5 min)”; in the test with KM mice it was “++ (“++” means 1-3 min)”.
`COC(=O)OCOC(=O)CC[C@@H]1N=C(c2ccccn2)c2cc(Br)ccc2-n2c(C)cnc21` [Example 34]: the median effective dose (ED50) with SD rats (setting [1]) came to 3.4 mg/kg. In addition, in the test on SD rats, the “2ED50 duration” value was found to be 1.21 min; the 2ED50 recovery time came out at 1.01 min; the Quality of recovery entry is “+ (“+” means <1 min)”; the “duration and recovery time compared with remimazolam” value is recorded as “significantly shorter”. For the same compound, the “effective dose compared with remimazolam” value in the test on SD rats is “significantly lower”. In the test with KM mice, the 2ED50 duration worked out at 1.31 min; the 2ED50 recovery time was 1.23 min; the “duration and recovery time compared with remimazolam” value is on record as “significantly shorter”; the “effective dose compared with remimazolam” value is “significantly lower”. Besides, the ED50 in the test on KM mice (Mus musculus, read-out: ED50) came to 14.4 mg/kg.
As to `CCOC(=O)OCOC(=O)CC[C@@H]1N=C(c2ccccn2)c2cc(Br)ccc2-n2c(C)cnc21` [Example 35], in the test with SD rats (setting [1]), the ED50 was determined as 5.2 mg/kg. For the same compound, in the test on SD rats, the “2ED50 duration” value came out at 3.20 min, the 2ED50 recovery time is 2.52 min and the Quality of recovery result was “++ (“++” means 1-3 min)”. Also, in the test on KM mice, the 2ED50 duration was 5.25 min, the 2ED50 recovery time is reported as 2.02 min and the Quality of recovery result is recorded as “+++ (“+++” means 3-5 min)”. Also, the ED50 with KM mice (Mus musculus, read-out: ED50) is 25.2 mg/kg.
As for `CCOC(=O)OCOC(=O)CC[C@@H]1N=C(c2ccccn2)c2ccc(Cl)cc2-n2c(C)cnc21` [Example 36], the ED50 with SD rats (setting [1]) was found to be 2.8 mg/kg. In the test on SD rats, the “2ED50 duration” value was 3.14 min, the 2ED50 recovery time is given as 2.39 min and the Quality of recovery entry is “+++ (“+++” means 3-5 min)”. Moreover, in the test with KM mice, the 2ED50 duration is reported as 4.34 min, the 2ED50 recovery time is on record as 1.49 min and the Quality of recovery result is “+++ (“+++” means 3-5 min)”. Also, the ED50 in the test with KM mice (Mus musculus, read-out: ED50) worked out at 27.8 mg/kg.
Turning to `CCOC(=O)COC(=O)CC[C@@H]1N=C(c2ccccn2)c2cccc(Cl)c2-n2c(C)cnc21` [Example 37], the ED50 with SD rats (setting [1]) was 5.7 mg/kg; in the test with KM mice (Mus musculus, read-out: ED50), 25.7 mg/kg. The “2ED50 duration” value with SD rats turned out to be 3.02 min; in the test with KM mice, 4.42 min. The 2ED50 recovery time in the test with SD rats came to 2.51 min; in the test with KM mice, 1.58 min. Further, the Quality of recovery result with SD rats and in the test with KM mice was “++ (“++” means 1-3 min)” throughout.
